Source: US7384625B2, “Method and composition for rejuvenating hair, nails, tissues, cells and organs by ex-vivo or immersive treatment” (Farington Pharmaceuticals, LLC, priority 2001, dated 2008)
“Also recorded” adds a separate entry of the source.

Assays:
[1] = Hair deformability: stress vs strain of bending individual hairs before and after treatment; conditions: FIG. 1
From the text: Methodology for Determination of Stress vs Strain Relationship (Stiffness) The distensibility (i.e, elasticity, rigidity, shear, tensile strength, compression, etc.) of hair, nails, tendons, etc. may be determined using widely available commercial devices, such as manufactured by Instron. Alternatively, other test methods known to a practitioner of the art may be employed. The test assay for determining whether hair has been “rejuvenated” for the present invention is the following. Individual scalp hairs were cemented into the ends of glass capillary tubes such that several centimeters of the shaft protruded from the end. This hair was then trimmed to extend 18 mm from the end of the tube. The unit was then inserted into a micropipette positioner for study. Evaluation consisted of bending the hair by applying a specified force and displacement. Thus, this determination of stress vs strain of bending assessed elasticity, compressibility, and shear of each hair shaft. Each hair served as its own control, with baseline and post-treatment properties assessed and directly compared. A 1 mm thick plate with a 0.5 mm diameter hole drilled through was attached to the surface of an isometric strain gauge. To perform each measurement, the capillary tube was placed over the fenestrated plate and the hair end inserted into the hole in the plate without touching the strain gauge. The hair was then straightened, if necessary, such that its axis formed a 10 degree angle with respect to vertical. Once positioned, the hair was then lowered onto the surface of the strain gauge. The force required to bend each hair a specified distance was determined over a wide range of displacements. From the stress vs strain relationships thus derived, the work to bend each hair under different treatment regimens can be directly compared. For purposes of the present invention, the term “rejuvenated” hair means an improvement of at least 20% in the measured value of the treated hair, toward the values seen in young, undamaged hair (i.e. healthy). […] The stress versus strain relationship was determined as a baseline. […]

[2] = Tendon rejuvenation: elasticity in a materials testing device before and after ex vivo exposure; parameters: species or system hen; conditions: FIG. 2
Protocol: The distensibility (i.e, elasticity, rigidity, shear, tensile strength, compression, etc.) of hair, nails, tendons, etc. may be determined using widely available commercial devices, such as manufactured by Instron. Alternatively, other test methods known to a practitioner of the art may be employed. The elasticity of the Achilles tendon of a one year old hen was determined in a materials testing device before and after ex vivo exposure to 3-(2-phenyl-2-oxoethyl)-4,5-dimethylthiazolium chloride (1 mM) in a bath for 15 minutes.

[3] = Tissue diffusion coefficient rejuvenation of ex vivo donor lungs, tested in the recipient patient after transplantation; conditions: ex vivo organ flushed once with cooled preservation solution containing 0.01 to 1.0 mM; testing in recipient patient
Protocol: The following is an illustration of a methodology that can be used to rejuvenate ex vivo and prior to transplantation to a recipient patient the lungs removed from a donor cadaver aged 21 years or more. […] Individuals' deformability and diffusion characteristics can be characterized by using the standard methodology of determination of the lung diffusing capacity for carbon monoxide (e.g., Chang et al., Chest (1992) 102:139-42). The diffusing capacity is measured in the supine patient using a single breath of carbon monoxide (0.3%) held for ten seconds using a CPI 5000 IV (Gould Instruments, Houston, Tex.), corrected for alveolar volume. A young subject (20 years old) will have approximately a 40% higher diffusion coefficient for carbon monoxide compared to older subjects (60 yrs). The ex vivo organ is flushed once with a cooled preservation solution containing 3-(2-phenyl-2-oxoethyl)-4,5-dimethylthiazolium chloride at a concentration of 0.01 to 1.0 mM.

Cc1sc[n+](CC(=O)c2ccccc2)c1C.[Cl-] [3-(2-phenyl-2-oxoethyl)-4,5-dimethylthiazolium chloride]
distensibility of hair ([1]; 1 mM, 15 minutes, after treatment vs baseline): increased distensibility | stiffness of hair ([1]; after treatment): decreases the stiffness | reduction of resulting strain versus before treatment ([1]; hair immersed in 1 mM solution for 15 minutes, stress greater than 0.08): about 50% | distensibility of tendon ([2]; 1 mM bath for 15 minutes ex vivo, post-treatment): improved; also recorded: significantly increased | strain of treated tendon as percent of the strain of the untreated tendon ([2]; 1 mM bath for 15 minutes ex vivo, stress greater than 0.04): about 50% | tensile strength of tendon ([2]; after treatment): improved | deformability of transplanted lungs [3]: improved | diffusional capacity of transplanted lungs [3]: improved
